Among the data in ChEMBL document CHEMBL5223103, “FLT3 inhibitors for acute myeloid leukemia: successes, defeats, and emerging paradigms” (RSC Med Chem, 2022) are GI50 and IC50 values, retold here.

A value given as a limit tells only on which side of the number the result lay.

A short description of assay [1]: Growth inhibition of mouse 32D cells harboring FLT3-ITD-Y842C mutant assessed as growth inhibition WST assay. The class given is functional.
The test system of the next assay is Kasumi 1. Nature of the assay: Growth inhibition of human Kasumi 1 cells assessed as reduction in cell growth by cell viability assay. The class given is functional.
The next assay relates to THP-1. Nature of the assay: Growth inhibition of human THP-1 cells assessed as reduction in cell growth by cell viability assay. The class given is functional.
In another assay the test system is EOL1. The assay can be described thus: Growth inhibition of human EOL1 cells assessed as reduction in cell growth by cell viability assay. The class given is functional.
Assay [2] is described as follows: Growth inhibition of mouse 32D cells harboring FLT3-ITD mutant assessed as growth inhibition by WST assay. Format: functional.
Assay [3] in a line: Growth inhibition of mouse 32D cells harboring FLT3-D835Y mutant assessed as growth inhibition WST assay. Format: functional.
Assay [4] can be described thus: Growth inhibition of mouse 32D cells harboring FLT3-ITD-Y842H mutant assessed as growth inhibition WST assay. Format: functional.
The next assay deals with K562. The assay can be described thus: Growth inhibition of human K562 cells assessed as reduction in cell growth by cell viability assay. Format: functional.
Assay [5] deals with MV4-11. Nature of the assay: Growth inhibition of human MV4-11 cells assessed as reduction in cell growth by cell viability assay. Format: functional.
Assay [6] can be described thus: Growth inhibition of mouse 32D cells harboring FLT3-ITD-F691L mutant assessed as growth inhibition WST assay. Format: functional.
Assay [7] relates to MOLM-13. The assay can be described thus: Growth inhibition of human MOLM-13 cells assessed as reduction in cell growth by cell viability assay. Format: functional.
The nature of assay [8]: Growth inhibition of mouse 32D cells harboring FLT3-ITD-D835Y mutant assessed as growth inhibition WST assay. The class given is functional.
The next assay deals with MOLM-14. The assay can be described thus: Growth inhibition of human MOLM-14 cells assessed as reduction in cell growth by cell viability assay. The class given is functional.
For assay [9], the system named is BaF3. The assay can be described thus: Growth inhibition of mouse BaF3 cells transfected with FLT3-D835Y assessed as inhibition of cell growth measured after 48 hrs by MTT assay. The class given is functional. For orientation: Tetrazolium dyes change colour on reduction, which living cells bring about.
In assay [10] the test system is BaF3. The assay can be described thus: Growth inhibition of mouse BaF3 cells transfected with FLT3-ITD assessed as inhibition of cell growth measured after 48 hrs by MTT assay. Format: functional.
The test system of assay [11] is BaF3. The assay can be described thus: Growth inhibition of mouse BAF3 cells harboring FLT3 ITD mutant assessed as reduction in cell inhibition measured after 72 hrs by MTT assay. The class given is functional.
The subject of assay [12] is MOLM-13. The assay can be described thus: Growth inhibition of human MOLM-13 cells harboring FLT3 resistant inhibitor assessed as growth inhibition. Format: functional.
In assay [13] the test system is MV4-11. The assay can be described thus: Growth inhibition of human MV4-11 cells by WST-8 assay. The class given is functional.
Assay [14] has as its system BaF3. Nature of the assay: Growth inhibition of mouse BaF3 cells transfected in FLT3-ITD mutant measured after 72 hrs by CCK8 assay. The class given is functional.
The test system of assay [15] is BaF3. Nature of the assay: Growth inhibition of mouse BaF3 cells transfected in FLT3-TDK mutant measured after 72 hrs by CCK8 assay. The class given is functional.
The test system of assay [16] is MOLM-13. Nature of the assay: Growth inhibition of human MOLM-13 cells by WST-8 assay. The class given is functional.
Assay [17] has as its target Interleukin-1 receptor-associated kinase 1 (Homo sapiens, UniProt P51617). The assay can be described thus: Inhibition of IRAK-1 (unknown origin).
The target in assay [18] is Macrophage colony-stimulating factor 1 receptor (Homo sapiens, UniProt P07333). Nature of the assay: Inhibition of FMS (unknown origin).
Chain of Macrophage colony-stimulating factor 1 receptor (P07333 whole entry): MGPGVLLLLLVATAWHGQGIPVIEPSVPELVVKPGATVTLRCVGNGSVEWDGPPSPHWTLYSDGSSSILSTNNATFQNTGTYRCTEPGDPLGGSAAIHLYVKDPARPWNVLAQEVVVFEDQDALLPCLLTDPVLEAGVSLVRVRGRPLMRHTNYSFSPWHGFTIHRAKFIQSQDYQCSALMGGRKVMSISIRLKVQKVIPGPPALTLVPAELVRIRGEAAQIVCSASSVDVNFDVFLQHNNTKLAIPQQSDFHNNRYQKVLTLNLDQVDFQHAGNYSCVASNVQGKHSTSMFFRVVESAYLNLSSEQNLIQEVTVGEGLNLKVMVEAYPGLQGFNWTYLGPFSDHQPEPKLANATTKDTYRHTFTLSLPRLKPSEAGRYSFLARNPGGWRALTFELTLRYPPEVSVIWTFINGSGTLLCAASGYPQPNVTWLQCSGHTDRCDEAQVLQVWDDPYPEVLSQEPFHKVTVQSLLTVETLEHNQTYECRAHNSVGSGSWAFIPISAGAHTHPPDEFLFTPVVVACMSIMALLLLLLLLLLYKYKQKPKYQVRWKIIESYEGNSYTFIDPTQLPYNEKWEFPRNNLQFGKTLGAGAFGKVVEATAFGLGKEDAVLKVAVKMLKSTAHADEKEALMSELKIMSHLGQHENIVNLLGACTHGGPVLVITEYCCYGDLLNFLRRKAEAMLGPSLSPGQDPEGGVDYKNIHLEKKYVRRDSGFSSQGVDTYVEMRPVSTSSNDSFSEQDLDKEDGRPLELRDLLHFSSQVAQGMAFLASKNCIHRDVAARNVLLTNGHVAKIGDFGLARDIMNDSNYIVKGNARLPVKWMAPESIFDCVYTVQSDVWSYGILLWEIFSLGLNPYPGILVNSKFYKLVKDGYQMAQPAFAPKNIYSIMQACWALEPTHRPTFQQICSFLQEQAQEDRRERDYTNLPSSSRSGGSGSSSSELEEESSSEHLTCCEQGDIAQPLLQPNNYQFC

Chain of Interleukin-1 receptor-associated kinase 1 (P51617 whole entry): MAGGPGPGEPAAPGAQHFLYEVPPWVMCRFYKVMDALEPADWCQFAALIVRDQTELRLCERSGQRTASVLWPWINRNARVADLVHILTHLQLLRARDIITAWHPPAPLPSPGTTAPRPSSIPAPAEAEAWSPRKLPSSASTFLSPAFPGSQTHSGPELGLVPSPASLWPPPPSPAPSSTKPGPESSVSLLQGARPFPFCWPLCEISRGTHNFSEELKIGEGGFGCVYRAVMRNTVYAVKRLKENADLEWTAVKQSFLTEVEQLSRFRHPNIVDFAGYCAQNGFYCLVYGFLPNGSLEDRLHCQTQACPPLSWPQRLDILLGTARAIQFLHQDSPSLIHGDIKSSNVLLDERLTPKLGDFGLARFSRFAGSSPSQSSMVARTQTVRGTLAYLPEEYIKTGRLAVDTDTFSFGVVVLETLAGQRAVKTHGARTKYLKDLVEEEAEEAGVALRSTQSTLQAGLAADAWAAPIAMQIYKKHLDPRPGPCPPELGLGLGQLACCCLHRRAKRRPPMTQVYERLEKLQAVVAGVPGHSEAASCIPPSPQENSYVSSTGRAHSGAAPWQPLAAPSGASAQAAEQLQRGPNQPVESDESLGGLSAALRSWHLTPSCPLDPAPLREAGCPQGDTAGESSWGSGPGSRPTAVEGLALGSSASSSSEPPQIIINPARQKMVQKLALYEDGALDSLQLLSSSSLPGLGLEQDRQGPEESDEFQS

With `CCCNc1nc(Nc2ccc(C#N)cc2)ncc1C#CCCCNC(=O)[C@H](C)N(C)C(=O)/C=C/CN(C)C` [FF-10101], the concentration for 50% growth inhibition (GI50) in assay [1] is 3.5 nM; in the assay on Kasumi 1 it was 26 nM; in the assay on THP-1, above 1000 nM; in the assay on EOL1 it was 72 nM; in [2], 1.9 nM; in assay [3] it was 1.1 nM. The concentration for 50% growth inhibition (GI50) in assay [4] is 5.3 nM; with K562, above 1000 nM; in the assay with MV4-11 [5] it was 0.83 nM; in assay [6], 10 nM; with MOLM-13 [7], 1.1 nM; in assay [8] it was 0.81 nM. Further, the GI50 with MOLM-14 is 1.5 nM.

In the case of `CCc1nc(C(N)=O)c(Nc2ccc(N3CCC(N4CCN(C)CC4)CC3)c(OC)c2)nc1NC1CCOCC1` [GILTERITINIB], the figures for the GI50 in the assay with BaF3 [9] and in the assay on BaF3 [10] were 1.6 nM and 1.8 nM, respectively.

`C[C@]12O[C@H](C[C@]1(O)CO)n1c3ccccc3c3c4c(c5c6ccccc6n2c5c31)CNC4=O` [LESTAURTINIB]: the GI50 in the assay with BaF3 [11] amounted to 5 nM.

As for `C1=N/C2=N/c3ccc(OCCN4CCCC4)c(c3)COC/C=C/COCc3cccc(c3)C(=C1)N2` [PACRITINIB], the GI50 in the assay with MOLM-13 [12] was 173 nM; in the assay with MV4-11 [13], 33 nM; in the assay with BaF3 [14] it was 133 nM; with BaF3 [15], below 434 nM; in the assay on MOLM-13 [16] it was 73 nM. The IC50 was found to be 13.6 nM in assay [17] and 39.5 nM in assay [18].

The term GI50 denotes the concentration that inhibits growth by half. For orientation: IC50 means the concentration at which inhibition is half-maximal.
